Here are results for 18 compounds from patent US8343961B2, “Substituted heterocyclic compounds” (ArQule, Inc., priority 2009, dated 2013).

For test [1], the target named is T1, EphA8 (Homo sapiens, UniProt P29322).
T1 sequence (P29322 28-1005): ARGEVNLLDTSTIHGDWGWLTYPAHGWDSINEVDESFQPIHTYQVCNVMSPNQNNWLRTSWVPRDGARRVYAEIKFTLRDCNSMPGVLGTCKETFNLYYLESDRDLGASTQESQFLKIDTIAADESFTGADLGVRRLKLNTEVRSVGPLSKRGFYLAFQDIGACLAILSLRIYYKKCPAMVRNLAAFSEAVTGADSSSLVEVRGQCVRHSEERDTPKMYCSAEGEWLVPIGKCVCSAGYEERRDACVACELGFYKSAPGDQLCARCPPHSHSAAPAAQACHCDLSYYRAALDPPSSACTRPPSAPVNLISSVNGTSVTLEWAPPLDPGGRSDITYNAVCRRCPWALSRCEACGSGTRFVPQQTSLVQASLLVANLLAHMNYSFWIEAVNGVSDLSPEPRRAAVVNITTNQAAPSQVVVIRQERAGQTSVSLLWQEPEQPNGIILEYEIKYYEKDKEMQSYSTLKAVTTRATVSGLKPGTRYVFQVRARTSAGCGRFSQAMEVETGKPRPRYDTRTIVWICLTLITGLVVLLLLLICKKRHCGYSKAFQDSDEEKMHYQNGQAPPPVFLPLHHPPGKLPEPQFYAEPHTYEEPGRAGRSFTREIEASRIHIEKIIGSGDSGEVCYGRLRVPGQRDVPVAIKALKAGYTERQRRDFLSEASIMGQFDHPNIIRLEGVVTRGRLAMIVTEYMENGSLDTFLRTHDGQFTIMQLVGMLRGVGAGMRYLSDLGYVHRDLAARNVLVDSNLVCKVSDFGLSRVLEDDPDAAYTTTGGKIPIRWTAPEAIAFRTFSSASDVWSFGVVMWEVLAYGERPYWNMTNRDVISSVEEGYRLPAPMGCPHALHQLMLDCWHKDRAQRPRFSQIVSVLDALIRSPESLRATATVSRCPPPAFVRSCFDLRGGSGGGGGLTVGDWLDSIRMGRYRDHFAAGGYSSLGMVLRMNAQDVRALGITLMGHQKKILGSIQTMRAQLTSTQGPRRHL
Briefly: EphA8 Kinase Activity Assay. It counts as biochemical. As to conditions: read-out: EphA8, % INH, at 30 uM. On the procedure: Nunc Maxisorb plates are coated with streptavidin by overnight incubation with 100 μL per well of 1 μg/ml Streptavidin in DPBS. Prior to the start of the experiment, the plates are washed with TBST (3×200 μL) and blocked for at least 1 hour by adding 150 μL of 5% BSA/TBST. The plates are washed with TBST (3×200 μL/well) and left dry immediately before the capture step.
The test articles and control (Staurosporine) are prepared using the following assay buffer @ 3× desired final concentration (50 mM Tris-HCl, 0.02 mg/ml BSA, 10 mM MgCl2, 0.1 mM Na3VO4, 1 mM EGTA, 12.5 μM ATP, 0.01% NP-40, 1 mM DTT in 10% glycerol/water). In a reaction plate are added rapidly 20 μl test article (or control) and 20 μl EphA8 (0.12 ng/μl final concentration). The plate is incubated for 15 minutes. To the reaction plate is added 20 μl of Pyk-2 (0.75 ng/μl final concentration). The plate is incubated at room temperature for one hour. From the reaction plate, 50 μl is transferred to the streptavidin coated plate. The capture plate is incubated at room temperature for 30 minutes, then washed 6× with TBST. To the capture plate is added 100 μL/well of Cell Signaling anti-phospho tyrosine at a dilution of 1:3000 in 2% BSA/TBST. The plate is incubated for one hour at room temperature then washed 6× with TBST. To the capture plate is added 100 μL/well of Alkaline Phosphatase Tagged Goat anti Mouse Antibody at a dilution of 1:4000 in 2% BSA/TBST. The plate is incubated for one hour at room temperature then washed 6× with TBST. The fluorescent readout is initiated by the addition of 100 μl/well of Attophos reagent (6 mg/10 mL). The reading is done on the Perkin Elmer Envision system.

Test [2] deals with RET kinase (Homo sapiens, UniProt P07949). Briefly: RET Kinase Activity Assay. It counts as biochemical. As to conditions: read-out: Ret, % INH, at 30 uM. On the procedure:
The disclosed compounds were assayed for their ability to inhibit the activity of RET kinase. Nunc Maxwasorb plates were coated with streptavidin by overnight incubation with 100 μL per well of 1 μg/mL Streptavidin in DPBS. Prior to the start of the experiment, the plates were washed with TBST (3×200 μL) and blocked for at least 1 hour by adding 150 μL of 5% BSA/TBST. The plates were washed with TBST (3×200 […]) and left dry immediately before the capture step.
The test articles and controls (Staurosporine and Sutent) were prepared using the following assay buffer @ 3× desired final concentration (50 mM […], 0.02 mg/mL BSA, 10 mM MgCl2, 0.1 mM Na3VO4, 1 mM EGTA, 75 μM ATP0.01% NP-40, 2 mM DTT in 10% glycerol/water). In a reaction plate, were added rapidly 20 μL test article (or control) and 20 μL RET (0.25 ng/4 final concentration). The plate was incubated for 15 minutes. To the reaction plate was added 20 μL of Pyk-2 (0.25 ng/4 final concentration). The plate was incubated at room temperature for one hour.
From the reaction plate, 50 μL was transferred to the streptavidin coated plate. The capture plate was incubated at room temperature for 30 minutes then washed 6× with TBST. To the capture plate was added 100 μL/well of Cell Signaling anti-phospho tyrosine at a dilution of 1:3000 in 2% BSA/TBST. The plate was incubated for one hour at room temperature then washed 6× with TBST. To the capture plate was added 100 μL/well of Alkaline Phosphatase Tagged Goat anti Mouse Antibody at a dilution of 1:4000 in 2% BSA/TBST. The plate was incubated for one hour at room temperature then washed 6× with TBST. The fluorescent readout was initiated by the addition of 100 μL/well of Attophos reagent (6 mg/10 mL). The reading was done on the Perkin Elmer Envision system.

Bounds are passed on as bounds.

RET kinase, sequence (P07949 29-1114): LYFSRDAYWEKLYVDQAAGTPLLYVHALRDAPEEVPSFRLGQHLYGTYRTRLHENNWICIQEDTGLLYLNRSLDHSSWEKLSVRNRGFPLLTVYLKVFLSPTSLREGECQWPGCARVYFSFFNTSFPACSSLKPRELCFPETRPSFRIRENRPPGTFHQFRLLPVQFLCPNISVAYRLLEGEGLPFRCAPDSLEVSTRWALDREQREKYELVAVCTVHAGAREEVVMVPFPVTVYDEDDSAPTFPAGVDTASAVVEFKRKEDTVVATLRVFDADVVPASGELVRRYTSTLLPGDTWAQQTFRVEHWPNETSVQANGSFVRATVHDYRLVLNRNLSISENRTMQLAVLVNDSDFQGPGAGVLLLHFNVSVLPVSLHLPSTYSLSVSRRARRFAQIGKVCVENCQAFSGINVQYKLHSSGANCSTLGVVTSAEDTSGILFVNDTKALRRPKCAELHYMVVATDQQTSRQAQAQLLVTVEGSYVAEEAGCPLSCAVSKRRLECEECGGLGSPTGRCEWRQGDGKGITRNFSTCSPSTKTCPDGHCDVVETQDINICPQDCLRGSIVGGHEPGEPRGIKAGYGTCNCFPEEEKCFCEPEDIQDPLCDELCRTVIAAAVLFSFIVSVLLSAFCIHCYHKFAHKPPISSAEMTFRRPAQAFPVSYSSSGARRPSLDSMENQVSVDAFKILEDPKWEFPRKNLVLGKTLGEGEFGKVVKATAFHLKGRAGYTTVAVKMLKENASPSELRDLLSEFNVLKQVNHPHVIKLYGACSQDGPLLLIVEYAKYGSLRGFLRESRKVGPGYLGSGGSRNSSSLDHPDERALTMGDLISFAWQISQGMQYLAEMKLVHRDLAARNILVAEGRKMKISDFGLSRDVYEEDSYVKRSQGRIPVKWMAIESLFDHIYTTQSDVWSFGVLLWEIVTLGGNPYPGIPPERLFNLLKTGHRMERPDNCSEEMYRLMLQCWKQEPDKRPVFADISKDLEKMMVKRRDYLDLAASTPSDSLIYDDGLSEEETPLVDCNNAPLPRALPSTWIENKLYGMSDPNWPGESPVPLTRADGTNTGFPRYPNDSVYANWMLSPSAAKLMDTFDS

Turning to `Nc1nc(N2CCN(Cc3ccc(F)cc3)c3ccccc3C2)c2cn[nH]c2n1` [Compound 16, 4-[1-(4-fluorobenzyl)-1,2,3,5-tetrahydro-4H-1,4-benzodiazepin-4-yl]-1H-pyrazolo[3,4-d]pyrimidin-6-amine], the inhibition at 30 µM is 50 to 79% in test [1] and less than 50% in test [2].
Taken in the same sequence, the figures for `COc1cc2c(cc1OC)C(CCc1ccccc1)N(c1nc(N)nc3[nH]ncc13)CC2` (stereo not drawn) [Compound 51, 4-[6,7-dimethoxy-1-(2-phenylethyl)-3,4-dihydroisoquinolin-2(1H)-yl]-1H-pyrazolo[3,4-d]pyrimidin-6-amine] were less than 50% and 50 to 79%.
Regarding `Cc1ccc(CN2CCN(c3nc(N)nc4[nH]cnc34)Cc3ccccc32)cc1` [Compound 26, 6-[1-(4-methylbenzyl)-1,2,3,5-tetrahydro-4H-1,4-benzodiazepin-4-yl]-9H-purin-2-amine], the results for the inhibition at 30 µM in test [1] and in test [2] were less than 50% and 50 to 79%, respectively.
On the same counts, the results for `COc1ccc(OC)c(CN2CCN(c3nc(N)nc4[nH]ncc34)Cc3ccccc32)c1` [Compound 36, 4-[1-(2,5-dimethoxybenzyl)-1,2,3,5-tetrahydro-4H-1,4-benzodiazepin-4-yl]-1H-pyrazolo[3,4-d]pyrimidin-6-amine] are less than 50% and less than 50%.
On the same counts, the results for `Nc1nc(N2CCN(Cc3ccc(F)cc3)c3ccccc3C2)c2nc[nH]c2n1` [Compound 15, 6-[1-(4-fluorobenzyl)-1,2,3,5-tetrahydro-4H-1,4-benzodiazepin-4-yl]-9H-purin-2-amine] are less than 50% and 50 to 79%.
On the same counts, the results for `Cc1ccccc1CN1CCN(c2nc(N)nc3[nH]cnc23)Cc2ccccc21` [Compound 11, 6-[1-(2-methylbenzyl)-1,2,3,5-tetrahydro-4H-1,4-benzodiazepin-4-yl]-9H-purin-2-amine] are less than 50% and 50 to 79%.
In the case of `Cc1ccc(CCCN2CCN(c3nc(N)nc4[nH]ncc34)Cc3ccccc32)cc1` [Compound 45, 4-{1-[3-(4-methylphenyl)propyl]-1,2,3,5-tetrahydro-4H-1,4-benzodiazepin-4-yl}-1H-pyrazolo[3,4-d]pyrimidin-6-amine], the inhibition at 30 µM in test [1] and in test [2] was 50 to 79% throughout.
With `Nc1nc(N2CCN(Cc3cccc4ccccc34)c3ccccc3C2)c2nc[nH]c2n1` [Compound 17, 6-[1-(1-naphthylmethyl)-1,2,3,5-tetrahydro-4H-1,4-benzodiazepin-4-yl]-9H-purin-2-amine], the inhibition at 30 µM in test [1] and in test [2] was 50 to 79% throughout.
With `CC(C)c1ccc(CN2CCN(c3nc(N)nc4[nH]ncc34)Cc3ccccc32)cc1` [Compound 4, 4-[1-(4-isopropylbenzyl)-1,2,3,5-tetrahydro-4H-1,4-benzodiazepin-4-yl]-1H-pyrazolo[3,4-d]pyrimidin-6-amine], the inhibition at 30 µM in test [1] and in test [2] was less than 50% throughout.
Take `Nc1nc(N2CCN(CCCc3cccc(F)c3)c3ccccc3C2)c2nc[nH]c2n1` [Compound 39, 6-{1-[3-(3-fluorophenyl)propyl]-1,2,3,5-tetrahydro-4H-1,4-benzodiazepin-4-yl}-9H-purin-2-amine]: the inhibition at 30 µM is less than 50% in test [1] and 50 to 79% in test [2].
For `COc1ccc(CN2CCN(c3nc(N)nc4[nH]ncc34)Cc3ccccc32)cc1OC` [Compound 28, 4-[1-(3,4-dimethoxybenzyl)-1,2,3,5-tetrahydro-4H-1,4-benzodiazepin-4-yl]-1H-pyrazolo[3,4-d]pyrimidin-6-amine], the inhibition at 30 µM in test [1] and in test [2] was less than 50% each time.
Consider `Nc1nc(N2CCN(CCCc3ccccc3)c3ccccc3C2)c2cn[nH]c2n1` [Compound 41, 4-[1-(3-phenylpropyl)-1,2,3,5-tetrahydro-4H-1,4-benzodiazepin-4-yl]-1H-pyrazolo[3,4-d]pyrimidin-6-amine], for which the inhibition at 30 µM in test [1] and in test [2] was less than 50% each time.
For `Nc1nc(N2CCN(CCCc3ccccc3)c3ccccc3C2)c2nc[nH]c2n1` [Compound 40, 6-[1-(3-phenylpropyl)-1,2,3,5-tetrahydro-4H-1,4-benzodiazepin-4-yl]-9H-purin-2-amine], the results for the inhibition at 30 µM in test [1] and in test [2] were less than 50% and 50 to 79%, respectively.
On the same counts, the results for `CC(C)c1ccc(CN2CCN(c3nc(N)nc4[nH]cnc34)Cc3ccccc32)cc1` [Compound 3, 6-[1-(4-isopropylbenzyl)-1,2,3,5-tetrahydro-4H-1,4-benzodiazepin-4-yl]-9H-purin-2-amine] are less than 50% and less than 50%.
In the case of `Cc1ccc(CCCN2CCN(c3nc(N)nc4[nH]cnc34)Cc3ccccc32)cc1` [Compound 44, 6-{1-[3-(4-methylphenyl)propyl]-1,2,3,5-tetrahydro-4H-1,4-benzodiazepin-4-yl}-9H-purin-2-amine], the inhibition at 30 µM in test [1] and in test [2] was less than 50% each time.
For `Nc1nc(N2CCN(Cc3cccc(F)c3)c3ccccc3C2)c2cn[nH]c2n1` [Compound 6, 4-[1-(3-fluorobenzyl)-1,2,3,5-tetrahydro-4H-1,4-benzodiazepin-4-yl]-1H-pyrazolo[3,4-d]pyrimidin-6-amine], the inhibition at 30 µM in test [1] and in test [2] was 50 to 79% throughout.
Regarding `Nc1nc(N2CCN(CCCc3cccc(Cl)c3)c3ccccc3C2)c2nc[nH]c2n1` [Compound 7, 6-{1-[3-(3-chlorophenyl)propyl]-1,2,3,5-tetrahydro-4H-1,4-benzodiazepin-4-yl}-9H-purin-2-amine], the inhibition at 30 µM in test [1] and in test [2] was less than 50% throughout.
Consider `Nc1nc(N2CCN(Cc3cccc(C(F)(F)F)c3)c3ccccc3C2)c2cn[nH]c2n1` [Compound 21, 4-{1-[3-(trifluoromethyl)benzyl]-1,2,3,5-tetrahydro-4H-1,4-benzodiazepin-4-yl}-1H-pyrazolo[3,4-d]pyrimidin-6-amine], for which the inhibition at 30 µM in test [1] and in test [2] was less than 50% each time.
